Values joined by “and” are separate entries in the source; they are usually repeats but may differ in a detail not shown here. Equal entries are not always repeated. Where two headings read alike, the source gives them in different places.
Molecular target: T1, human EGF receptor (Homo sapiens, UniProt P00533)
T1 construct: expressed in transfected cells; host or cells: NIH3T3 clone C7 (EGFR/C7; mouse fibroblasts)
Assay: EGF-receptor whole cell kinase assay (EGFR-3T3)
Format: cell-based
Procedure: The following target cells were used for cellular kinaseassays: NIH3T3 clone C7 (Honegger et al., supra) engineered to over-express human EGF receptor; NIH3T3 cells engineered to over-express a chimeric receptor containing the EGFR extracellular domain and the HER2 intracellular kinase domain; the human mammary carcinoma line BT474 (ATCC HTB2) expressing HER2; and the human glioblastoma line U1242 that expresses PDGFR-β. Growth assays were carried out using human mammary epithelial SKBR3 (ATCC HTB30) cells, SKOV3 (ATCC HTB77) human ovarian cancer cell line, A431 cells, MCF7 human breast carcinoma cells, MCF7 cells overexpress the HER2 kinase (MCF7-HER2), NIH3T3 cells, and NIH3T3 cells overexpressing the HER2 kinase (3T3-HER2).
Unless otherwise stated the effect of various compounds on receptor tyrosine kinases were assayed as described in this section.
1. EGF-receptor Whole Cell Kinase Assay
EGFR kinase activity (EGFR-3T3 assay) in whole cells was measured as described below:
The following protocol was used:
A. Coat ELISA plates (Corning, 96 well, Cat. #25805-96) with 05-101 antibody at 0.5 μg per well in PBS, 150 μl final volume/well, and store overnight at 4° C. Coated plates are good for up to 10 days when stored at 4° C.
B. On day of use, remove coating buffer and replace with blocking buffer (5% Carnation Instant Non-Fat Dry Milk in PBS). Incubate the plate, shaking, at room temperature (about 23° C. to 25° C.) for 30 minutes. Just prior to use, remove blocking buffer and wash plate 4 times with TBST buffer.
A. EGFR/C7 cell line (Honegger, et al., Cell 51:199-209, 1987) can be use for this assay.
B. Choose dishes having 80-90% confluence for the experiment. Trypsinize cells and stop reaction by adding 10% CS DMEM medium. Suspend cells in DMEM medium (10% CS DMEM medium) and centrifuge once at 1000 rpm, and once at room temperature for 5 minutes.
C. Resuspend cells in seeding medium (DMEM, 0.5% bovine serum), and count the cells using trypan blue. Viability above 90% is acceptable. Seed cells in DMEM medium (0.5% bovine serum) at a density of 10,000 cells per well, 100 μl per well, in a 96 well microtiter plate. Incubate seeded cells in 5% CO2 at 37° C. for about 40 hours.
A. Check seeded cells for contamination using an inverted microscope. Dilute drug stock (10 mg/ml in DMSO) 1:10 in DMEM medium, then transfer 5 μl to a test well for a final drug dilution of 1:200 and a final DMSO concentration of […]. Control wells receive DMSO alone. Incubate in 5% CO2 at 37° C. for one hour.
B. Prepare EGF ligand: dilute stock EGF in DMEM so that upon transfer of 10 μl dilute EGF (1:12 dilution), 25 nM final concentration is attained.
C. Prepare fresh HNTG* sufficient for 100 μl per well; and place on ice.
D. After two hours incubation with drug, add prepared EGF ligand to cells, 10 μl per well, to yield a final concentration of 25 nM. Control wells receive DMEM alone. Incubate, shaking, at room temperature, for 5 minutes.
E. Remove drug, EGF, and DMEM. Wash cells twice with PBS. Transfer HNTG* to cells, 100 μl per well. Place on ice for 5 minutes. Meanwhile, remove blocking buffer from other ELISA plate and wash with TBST as described above.
F. With a pipette tip securely fitted to a micropipettor, scrape cells from plate and homogenize cell material by repeatedly aspirating and dispensing the HNTG* lysis buffer. Transfer lysate to a coated, blocked, and washed ELISA plate. Incubate shaking at room temperature for one hour.
G. Remove lysate and wash 4 times with TBST. Transfer freshly diluted anti-Ptyr antibody to ELISA plate at 100 μl per well. Incubate shaking at room temperature for 30 minutes in the presence of the anti-Ptyr antiserum (1:3000 dilution in TBST).
H. Remove the anti-Ptyr antibody and wash 4 times with TBST. Transfer the freshly diluted TAGO anti-rabbit IgG antibody to the ELISA plate at 100 μl per well.

[1] = Table V, read-out: Estimated IC50 Cellular Kinase Assays EGFR (EGF-3T3)
[2] = Table VI, cellular kinase assay, read-out: EGFR-3T3

CC(C)(C)c1cc(/C=C(\C#N)C(N)=S)cc(C(C)(C)C)c1O [Compound M11] was tested, and the IC50 [1] was 40 µM and the IC50 [2] was 21 µM.

In the case of N#C/C(=C\c1ccc(O)c(O)c1)C(=S)NCc1ccccc1 [Compound M13], the IC50 [1] is reported as over 100 µM and the IC50 [2] is reported as over 100 µM.

With N#C/C(=C\c1ccc(O)c(O)c1)C(=O)Nc1cccc(C(F)(F)F)c1 [Compound M15] the IC50 [1] was over 100 µM and the IC50 [2] was over 100 µM.

With N#C/C(=C\c1cc(O)c(O)c(I)c1)C(=O)NCCCc1ccccc1 [Compound M16] the IC50 [1] was 4 µM and 4.4 µM and the IC50 [2] was 9 µM.

CC(C)(C)c1cc(/C=C(\C#N)C(=O)NCCCc2ccccc2)cc(C(C)(C)C)c1O [Compound M20, (E)-3-(3,5-di-t-Butyl-4-hydroxyphenyl)-2-[(3-phenyl-n-propyl)aminocarbonyl]acrylonitrile] showed an IC50 [2] of over 100 µM.

Molecule CC(C)c1cc(/C=C(\C#N)C(=O)NCCCc2ccccc2)cc(C(C)C)c1O [Compound M21, (E)-3-(3,5-Diisopropyl-4-hydroxyphenyl)-2-[(3-phenyl-n-propyl)aminocarbonyl]acrylonitrile] has an IC50 [2] of over 100 µM.

In the case of CC(C)c1cc(C=C(C#N)C(N)=C(C#N)C#N)cc(C(C)C)c1O [Compound M22, (E)-2-(1-Amino-2,2-dicyanoethenyl-3-(3,5-diisopropyl-4-hydroxyphenyl)acrylonitrile)], the IC50 [2] is reported as over 50 µM.

With CC(C)c1cc(/C=C(\C#N)C(=S)NCCCc2ccccc2)cc(C(C)C)c1O [Compound M24, (E)-3-(3,5-Diisopropyl-4-hyrdroxyphenyl)-2-[(3-phenyl-n-propyl)aminothiocarbonyl]acrylonitrile] the IC50 [2] was over 50 µM.

In the case of CC(C)c1cc(/C=C(\C#N)S(=O)(=O)c2ccccn2)cc(C(C)C)c1O [Compound M26], the IC50 [2] is reported as over 100 µM.

CC(C)c1cc(/C=C(\C#N)S(=O)(=O)CC#N)cc(C(C)C)c1O [Compound M27] showed an IC50 [2] of over 50 µM.

With CC(C)c1cc(/C=C(\C#N)S(=O)(=O)/C(C#N)=C/c2cc(C(C)C)c(O)c(C(C)C)c2)cc(C(C)C)c1O [Compound M29] the IC50 [2] was over 50 µM.

In the case of CC(C)c1cc(/C=C(\C#N)S(=O)(=O)c2ccccc2)cc(C(C)C)c1O [Compound M30], the IC50 [2] is reported as 61 µM.

Cc1cc(/C=C(\C#N)S(=O)(=O)c2ccccc2)cc(C)c1O [Compound M31] showed an IC50 [2] of over 100 µM.

In the case of Cc1cc(/C=C(\C#N)S(=O)(=O)c2ccccn2)cc(C)c1O [Compound M32], the IC50 [2] is reported as 64 µM.

With CC(C)(C)c1cc(/C=C(\C#N)S(=O)(=O)c2ccccc2)cc(C(C)(C)C)c1O [Compound M33, (E)-3-(3,5-di-t-Butyl-4-hydroxyphenyl)-2-(phenylsulfonyl)acrylonitrile] the IC50 [2] was over 100 µM.

CC(C)(C)c1cc(/C=C(\C#N)S(=O)(=O)c2ccccn2)cc(C(C)(C)C)c1O [Compound M34, (E)-3-(3,5-di-t-Butyl-4-hydroxyphenyl)-2-[(pyrid-2-yl)sulfonyl]acrylonitrile] gave an IC50 [2] of over 100 µM.

CC(C)(C)c1cc(/C=C(\C#N)C(=O)Nc2ccc(C(F)(F)F)cc2)cc(C(C)(C)C)c1O [Compound M35, (E)-3-(3,5-di-t-Butyl-4-hydroxyphenyl)-2-[(4-trifluoromethyl)phenylaminocarbonyl]acrylonitrile] showed an IC50 [2] of over 100 µM.

CC(C)(C)c1cc(/C=C(\C#N)S(=O)(=O)CC#N)cc(C(C)(C)C)c1O [Compound M36, (E)-3-(3,5-di-t-Butyl-4-hydroxyphenyl)-2-(cyanomethylsulfonyl)acrylonitrile] was tested, and the IC50 [2] was 56 µM.

Work on “(E,E)-2-[[-Cyano-2-(3,5-diisopropyl-4-hydroxyphenyl)ethenyl]sulfonyl]-3-(3,5-di-t-butyl-4-hydroxyphenyl)acrylonitrile [Compound M37]” yielded an IC50 [2] of over 100 µM.

From patent US6596878B2, “Methods and compositions for inhibiting cell proliferative disorders” (Yissum Research & Development Company of the Hebrew …, priority 1994, dated 2003)
